SMILES strings stand for the structures.

The subject of the assay is PBMCs infected with VSV-G pseudotyped HIV virus (VSV-G/pNLG1-P2A-ΔEnv). The assay is described as follows: cells. The conditions noted are these: Homo sapiens, PBMC, read-out: EC50 (HIV-TACK cell kill activity). Format: cell-based, human.
For `CC(F)(F)[C@@]1(C#CC2CC2)NC(=O)Nc2cc(Cn3ccnc(N)c3=O)c(F)cc21` [Example 67, (S)-7-((3-amino-2-oxopyrazin-1(2H)-yl)methyl)-4-(cyclopropylethynyl)-4-(1,1-difluoroethyl)-6-fluoro-3,4-dihydroquinazolin-2(1H)-one], the EC50 came out at 12 nM.

Turning to `COc1cnn(Cc2cc3c(cc2F)[C@@](C#CC2CC2)(C(C)(F)F)NC(=O)N3)c(=O)c1` [Example 83, (S)-4-(cyclopropylethynyl)-4-(1,1-difluoroethyl)-6-fluoro-7-((4-methoxy-6-oxopyridazin-1(6H)-yl)methyl)-3,4-dihydroquinazolin-2(1H)-one], the EC50 stood at 51 nM.

Turning to `CC(F)(F)[C@@]1(C#CC2CC2)NC(=O)Nc2cc(Cn3ncccc3=O)c(F)cc21` [Example 50, (S)-4-(cyclopropylethynyl)-4-(1,1-difluoroethyl)-6-fluoro-7-((6-oxopyridazin-1(6H)-yl)methyl)-3,4-dihydroquinazolin-2(1H)-one], the EC50 amounted to 32 nM.

Consider `Cc1cnc(N)c(=O)n1Cc1ccc2c(c1)NC(=O)N[C@]2(C#CC1CC1)C(F)(F)F` [Example 30, (S)-7-((3-amino-6-methyl-2-oxopyrazin-1(2H)-yl)methyl)-4-(cyclopropylethynyl)-4-(trifluoromethyl)-3,4-dihydroquinazolin-2(1H)-one], for which the EC50 turned out to be 152 nM.

Turning to `N#Cc1cc2c(cc1Cn1cnccc1=O)NC(=O)NC2(C#CC1CC1)C(F)(F)F` (single isomer, unassigned) [Example 75], the concentration giving a half-maximal response (EC50) worked out at 221 nM.

Consider `Nc1cc(=O)n(Cc2cc3c(cc2F)[C@@](C#CC2CC2)(C(F)(F)F)NC(=O)N3)cn1` [Example 41, (S)-7-((4-amino-6-oxopyrimidin-1(6H)-yl)methyl)-4-(cyclopropylethynyl)-6-fluoro-4-(trifluoromethyl)-3,4-dihydroquinazolin-2(1H)-one], for which the EC50 worked out at 60 nM.

For the compound `O=C1Nc2cc(Cn3nc(Cl)ccc3=O)ccc2[C@@](C#CC2CC2)(C(F)(F)F)N1` [Example 29, (S)-7-((3-chloro-6-oxopyridazin-1(6H)-yl)methyl)-4-(cyclopropylethynyl)-4-(trifluoromethyl)-3,4-dihydroquinazolin-2(1H)-one], the EC50 is 161 nM.

Take `Nc1nccn(Cc2cc3c(cc2F)[C@@](C#CC2CC2)(C(F)(F)F)NC(=O)N3)c1=O` [Example 2, (S)-7-((3-amino-2-oxopyrazin-1(2H)-yl)methyl)-4-(cyclopropylethynyl)-6-fluoro-4-(trifluoromethyl)-3,4-dihydroquinazolin-2(1H)-one]: the EC50 is 15 nM.

`O=c1ccncn1Cc1ccc2c(c1)NC(=S)N[C@]2(C#CC1CC1)C(F)(F)F` [Example 70, (S)-3-((4-(cyclopropylethynyl)-2-thioxo-4-(trifluoromethyl)-1,2,3,4-tetrahydroquinazolin-7-yl)methyl)pyrimidin-4(3H)-one]: the EC50 was found to be 93 nM.

`Nc1nccn(Cc2c(F)cc3c(c2F)NC(=O)N[C@]3(C#CC2CC2)C(F)(F)F)c1=O` [Example 20, (S)-7-((3-amino-2-oxopyrazin-1(2H)-yl)methyl)-4-(cyclopropylethynyl)-6,8-difluoro-4-(trifluoromethyl)-3,4-dihydroquinazolin-2(1H)-one]: the EC50 was found to be 47 nM.

For `Cc1cc(=O)n(Cc2cc3c(cc2Cl)[C@@](C#CC2CC2)(C(F)(F)F)NC(=O)N3)cn1` [Example 3, (S)-6-chloro-4-(cyclopropylethynyl)-7-((4-methyl-6-oxopyrimidin-1(6H)-yl)methyl)-4-(trifluoromethyl)-3,4-dihydroquinazolin-2(1H)-one], the EC50 came out at 26 nM.

`Nc1cncn(Cc2ccc3c(c2)NC(=O)N[C@]3(C#CC2CC2)C(F)(F)F)c1=O` [Example 37, (S)-1-((4-(cyclopropylethynyl)-2-oxo-4-(trifluoromethyl)-1,2,3,4-tetrahydroquinazolin-7-yl)methyl)-6-oxo-1,6-dihydropyrimidin-5-aminium 2,2,2-trifluoroacetate]: the EC50 amounted to 89 nM.

As for `CC(C)C#CC1(C(F)(F)F)NC(=O)Nc2cc(Cn3cnccc3=O)ccc21` (racemic) [Example 77, (S)-4-(3-methylbut-1-yn-1-yl)-7-((6-oxopyrimidin-1(6H)-yl)methyl)-4-(trifluoromethyl)-3,4-dihydroquinazolin-2(1H)-one AND (R)-4-(3-methylbut-1-yn-1-yl)-7-((6-oxopyrimidin-1(6H)-yl)methyl)-4-(trifluoromethyl)-3,4-dihydroquinazolin-2(1H)-one], the EC50 came out at 87 nM.

Consider `COc1ccc(=O)n(Cc2cc3c(cc2F)[C@@](C#CC2CC2)(C(C)(F)F)NC(=O)N3)n1` [Example 82, (S)-4-(cyclopropylethynyl)-4-(1,1-difluoroethyl)-6-fluoro-7-((3-methoxy-6-oxopyridazin-1(6H)-yl)methyl)-3,4-dihydroquinazolin-2(1H)-one], for which the EC50 was 66 nM.

As to `CC(F)(F)[C@@]1(C#CC2CC2)NC(=O)Nc2cc(Cn3ccnc(N)c3=O)ccc21` [Example 53, (S)-7-((3-amino-2-oxopyrazin-1(2H)-yl)methyl)-4-(cyclopropylethynyl)-4-(1,1-difluoroethyl)-3,4-dihydroquinazolin-2(1H)-one], the EC50 turned out to be 18 nM.

With `Cc1ccc(=O)n(Cc2cc3c(cc2F)[C@@](C#CC2CC2)(C(C)(F)F)NC(=O)N3)n1` [Example 51, (S)-4-(cyclopropylethynyl)-4-(1,1-difluoroethyl)-6-fluoro-7-((3-methyl-6-oxopyridazin-1(6H)-yl)methyl)-3,4-dihydroquinazolin-2(1H)-one], the half-maximal effective concentration (EC50) was found to be 54 nM.

Consider `O=C1Nc2cc(Cn3cnc(C(F)F)cc3=O)ccc2[C@@](C#CC2CC2)(C(F)(F)F)N1` [Example 36, (S)-4-(cyclopropylethynyl)-7-((4-(difluoromethyl)-6-oxopyrimidin-1(6H)-yl)methyl)-4-(trifluoromethyl)-3,4-dihydroquinazolin-2(1H)-one], for which the EC50 was found to be 101 nM.

With `O=C1Nc2cc(Cn3cnc(C(F)F)cc3=O)c(F)cc2[C@@](C#CC2CC2)(C(F)(F)F)N1` [Example 6, (S)-4-(cyclopropylethynyl)-7-((4-(difluoromethyl)-6-oxopyrimidin-1(6H)-yl)methyl)-6-fluoro-4-(trifluoromethyl)-3,4-dihydroquinazolin-2(1H)-one], the EC50 was found to be 38 nM.

Turning to `O=C1Nc2cc(Cn3cnc(C(F)(F)F)cc3=O)c(F)cc2[C@@](C#CC2CC2)(C(F)(F)F)N1` [Example 38, (S)-4-(cyclopropylethynyl)-6-fluoro-7-((6-oxo-4-(trifluoromethyl)pyrimidin-1(6H)-yl)methyl)-4-(trifluoromethyl)-3,4-dihydroquinazolin-2(1H)-one], the EC50 is 87 nM.

For `CC(F)(F)[C@@]1(C#CC2CC2)NC(=O)Nc2cc(Cn3ccnc(N)c3=O)c(Cl)cc21` [Example 17, (S)-7-((3-amino-2-oxopyrazin-1(2H)-yl)methyl)-6-chloro-4-(cyclopropylethynyl)-4-(1,1-difluoroethyl)-3,4-dihydroquinazolin-2(1H)-one], the EC50 was found to be 17 nM.

In the case of `Nc1nccn(Cc2cc3c(cc2Cl)[C@@](C#CC2CC2)(C(F)(F)F)NC(=O)N3)c1=O` [Example 58, (S)-7-((3-amino-2-oxopyrazin-1(2H)-yl)methyl)-6-chloro-4-(cyclopropylethynyl)-4-(trifluoromethyl)-3,4-dihydroquinazolin-2(1H)-one], the EC50 turned out to be 41 nM.

As for `O=C1Nc2cc(Cn3ncccc3=O)ccc2[C@@](C#CC2CC2)(C(F)(F)F)N1` [Example 23, (S)-4-(cyclopropylethynyl)-7-((6-oxopyridazin-1(6H)-yl)methyl)-4-(trifluoromethyl)-3,4-dihydroquinazolin-2(1H)-one], the concentration for a half-maximal effect (EC50) came to 250 nM.

By EC50 is commonly meant the concentration that produces a half-maximal response.

Values taken from patent publication US12558357B2, “Tetrahydroquinazoline derivatives as selective cytotoxic agents” (Merck Sharp & Dohme LLC, priority 2020, dated 2026).
